Several values for one entry are separate records, joined by “and”; a condition that tells them apart may be missing. Identical values can stand only once.
Key:
C57B1/Ks db/db mouse = assay: Plasma insulin concentration; format: in vivo; settings: db/db mice
Method: Inflammation is also a feature of type II diabetic animals and man. […] However, as a result of the C57B1/Ks genetic background rather than the C57B1/6, the mice show loss of pancreatic function from around 6/7 weeks of age and by 10 weeks show frank diabetes.
The mice were given chow diet (Bantin and Kingman, no 1 diet) and water ad lib. The mice were kept under controlled lighting conditions (lights on 08.00 h, 12 h light/12 h dark) and at a room temperature of 21°±1° C.
• Daily: Food and water intake • Twice weekly: Body weight and glucose • Day 1: Weigh mice, dose compounds, provide measured amount of food, provide measured amount of water • Days 2, 5 and 8: Fed blood glucose concentration • Day 9: Oral glucose tolerance • Days 12 and 16: Fed blood glucose concentration • Day 19: 24 hr glycaemic assay • Days 22, 26 and 29: Fed blood glucose concentration • Day 33: 24 hr glycaemic assay • Day 38: Fed blood glucose concentration • Day 39: Body composition by Dexascan in anaesthetised mice • Day 41: Termination. Take blood samples for glucose, free fatty acids, triglycerides, cholesterol, insulin and HbA

aorta = assay: Chronic treatment of rats, vascular responses in isolated arteries; format: in vivo, rat; settings: aorta of rats treated for 2 weeks
[1] = test system: dietary induced obese (DIO) mouse model; assay: Percentage body fat by Dexascan; format: in vivo; settings: DIO mice; day 28 Dexascan; pure THCV at 30-fold lower dose than rimonabant
Method: The following are a battery of tests used to elicit the effects of drugs on diseases including type I or II diabetes, obesity, dyslipidaemia, related metabolic disorders and cardiovascular disease. • a) Body weight: Bodyweights of all mice were measured twice weekly during the study. • b) Food intake: Food intake was measured by weight difference taking account of food wastage in the bottom of the cage. • c) Measurement of water consumption: Water intake was calculated daily for each animal, during the treatment period, by weight difference of the water bottle. • d) Oral Glucose Tolerance Test (OGTT): Glucose was dissolved in water (3 g/10 ml) and given to the mice orally at a rate of 3 g/kg. […] Samples were then analysed automatically using a SpectraMax-250 and SoftMax Pro software. • f) Plasma preparation: Blood was collected for the measurement of i) plasma insulin, ii) cholesterol, iii) free fatty acids or iv) triglyceride concentration. • i. Plasma insulin analysis: Plasma insulin was measured using 5 μl of plasma, compared with a mouse insulin standard using a 96-well micro-assay plate • ii. […] The samples were mixed and incubated for 5 minutes before reading at dual wavelengths of 500 and 660 nm. • iii. Plasma free fatty acids: 5 μl samples of plasma were measured into a 96-well assay plate, to which was added 0.2 ml of reagents NEFA C • iv. […]

[2] = test system: dietary induced obese (DIO) mouse model; assay: Thermic response to food (energy expenditure after Complan meal), chronic dosing study; format: in vivo; parameters: Thermic response to food: unit not given here; settings: for Thermic response to food: listed as pure THCV
Source text: (§1) Once the acute studies were complete the mice were grouped in two groups of five mice for the chronic dosing study. Dosing was daily by oral gavage at 09:00-10:00.
Energy expenditure consists of basal metabolic rate, exercise-induced energy expenditure, and non-exercise thermogenesis. The latter is the most likely area to be affected by anti-obesity agents. Non-exercise thermogenesis includes the thermic response to food, which in rodents can be measured by examining energy expenditure in response to a meal. This was measured after an oral dose of complan (see methods).

C57B1/6 ob/ob mouse = assay: Liver triglyceride; format: in vivo; settings: ob/ob mice, at termination, individual values
Method: Blood samples were also taken at −30 minutes for insulin analysis. • e) Blood Glucose analysis: Duplicate 20 μl samples of blood of were taken for each individual sample and placed in a 96-well assay plate. To each well was added 180 μl aliquots of glucose oxidase reagent. Samples were mixed and then left for approximately 30 minutes. Samples were then analysed automatically using a SpectraMax-250 and SoftMax Pro software. • f) Plasma preparation: Blood was collected for the measurement of i) plasma insulin, ii) cholesterol, iii) free fatty acids or iv) triglyceride concentration. • i. Plasma insulin analysis: Plasma insulin was measured using 5 μl of plasma, compared with a mouse insulin standard using a 96-well micro-assay plate • ii. Plasma cholesterol analysis: To each sample was added 200 μl of infinity cholesterol liquid stable reagent. The samples were mixed and incubated for 5 minutes before reading at dual wavelengths of 500 and 660 nm. • iii. Plasma free fatty acids: 5 μl samples of plasma were measured into a 96-well assay plate, to which was added 0.2 ml of reagents NEFA C • iv. […] Dedicated software was using to quantify amounts of bone and fat. The mice were lightly anaesthetised, sufficient to keep them quiescent during this non-invasive technique. • h) Energy expenditure measurements: Energy expenditure was measured by open circuit indirect calorimetry with mice in their home cages. […] Plasma leptin was measured in fed mice using the Crystal Chem Elisa assay. • j) Plasma adiponectin: Adiponectin exerts some of its weight reduction effects via the brain. […] Plasma adiponectin was measured in overnight fasted mice using the 96-well B-Bridge Elisa assay. • k) Plasma HDL-cholesterol: Plasma HDL-cholesterol was measured in fed mice using the kit from Trinity Biotech. • l) 24 h blood glucose profile: This was determined in order to ensure that changes in the diurnal control of blood glucose were detected. Thus blood samples were obtained at three hourly intervals throughout a continuous 24 h period. • m) Plasma haemoglobin AIC: Samples (10 μl) were analysed using the AIC. […]

[3] = test system: dietary induced obese (DIO) mouse model; assay: 24 h energy expenditure by indirect calorimetry, chronic dosing study; format: in vivo; settings: DIO mice
Source text: The C57B1/6 mouse fed on a high fat diet for around 12 weeks is a standard model used to evaluate agents likely to affect metabolic disease including obesity, type II diabetes and dyslipidaemia. Thus both potential anti-obesity effects and effects on diabetic and dyslipidaemia parameters will be measured.
as §1

SMILES: C=C(C)[C@@H]1CCC(C)=C[C@H]1c1c(O)cc(CCCCC)cc1O [CBD, cannabidiol]
- Plasma insulin during the 24 h glucose profiles (C57B1/Ks db/db mouse): no consistent effect was seen
- Maximal response to methoxamine (aorta): 1.63±0.21 g increase tension
- Potency of acetylcholine (pEC50) (aorta): 5.37±0.40

SMILES: CCCc1cc(O)c2c(c1)OC(C)(C)[C@@H]1CCC(C)=C[C@@H]21 [THCV, tetrahydrocannabivarin]
- Percentage body fat [1]: at least as effective as rimonabant
- Thermic response to food ([2]; DIO mice, days 15-17, 0.3 mg·kg−1 p.o., Hour 0.22): 0.67 and 0.91 and 1.26
- Thermic response to food ([2]; DIO mice, days 15-17, 0.3 mg·kg−1 p.o., Hour 0.44): 1.78 and 1.70 and 1.98
- Thermic response to food ([2]; DIO mice, days 15-17, 0.3 mg·kg−1 p.o., Hour 0.67): 2.30 and 2.06 and 2.49
- Thermic response to food ([2]; DIO mice, days 15-17, 0.3 mg·kg−1 p.o., Hour 0.89): 2.51 and 2.42
- Thermic response to food ([2]; DIO mice, days 15-17, 0.3 mg·kg−1 p.o., Hour 1.11): 2.51 and 2.74 and 2.64
- Thermic response to food ([2]; DIO mice, days 15-17, 0.3 mg·kg−1 p.o., Hour 1.33): 2.50 and 2.82 and 2.67
- Thermic response to food ([2]; DIO mice, days 15-17, 0.3 mg·kg−1 p.o., Hour 1.56): 2.53 and 2.81 and 3.13
- Thermic response to food ([2]; DIO mice, days 15-17, 0.3 mg·kg−1 p.o., Hour 1.78): 2.54 and 2.76 and 3.31
- Thermic response to food ([2]; DIO mice, days 15-17, 0.3 mg·kg−1 p.o., Hour 2.00): 2.45 and 2.62 and 3.18
- Thermic response to food ([2]; DIO mice, days 15-17, 0.3 mg·kg−1 p.o., Hour 2.22): 2.61 and 2.74 and 3.44
- Thermic response to food ([2]; DIO mice, days 15-17, 0.3 mg·kg−1 p.o., Hour 2.44): 2.71 and 2.74 and 3.18
- Thermic response to food ([2]; DIO mice, days 15-17, 0.3 mg·kg−1 p.o., Hour 2.67): 2.66 and 2.83 and 3.10
- Thermic response to food ([2]; DIO mice, days 15-17, 0.3 mg·kg−1 p.o., Hour 2.89): 2.71 and 3.01 and 3.09
- Thermic response to food ([2]; DIO mice, days 15-17, 0.3 mg·kg−1 p.o., Hour 3.11): 2.68 and 3.16 and 3.02
- Thermic response to food ([2]; DIO mice, days 15-17, 0.3 mg·kg−1 p.o., Hour 3.33): 2.68 and 3.34 and 3.04
- Thermic response to food ([2]; DIO mice, days 15-17, 0.3 mg·kg−1 p.o., Hour 4.00): 2.70 and 3.49 and 3.13
- Thermic response to food, effect in words ([2]; DIO mice, days 15-17, chronic-study doses (rimonabant 10, pure THCV 0.3 mg·kg−1 p.o.)): have an affect over 2 h
- Thermic response to food ([2]; mouse, in vivo, po): 2.61 and 3.49 and 3.02 and 2.43 and 3.48 and 3.03
- Liver triglycerides concentration (C57B1/6 ob/ob mouse; 0.3 mg·kg−1 daily oral gavage (combination: both 0.3)): 17.16 and 11.16 and 14.94 and 15.48 and 9.10 and 16.72 and 9.33 and 14.97
- Liver triglycerides concentration (C57B1/6 ob/ob mouse; 0.3 mg·kg−1 daily oral gavage (combination: both 0.3), listed as pure THCV): increased
- Liver triglycerides concentration (C57B1/6 ob/ob mouse; 3.0 mg·kg−1 daily oral gavage (combination: both 3.0)): 8.70 and 15.20 and 10.77 and 9.78 and 12.06 and 13.92 and 18.27 and 14.09
- Potency on energy expenditure relative to rimonabant, on a dosage basis [3]: at least 10 fold
- Effectiveness on energy expenditure compared with rimonabant ([3]; high dose THCV-BDS, pure THCV 0.3 mg kg−1): more effective than rimonabant
